In brackets after ≈: the same amount, converted by molar mass.

The experiment relates to Mycobacterium tuberculosis. Kind of experiment: Antitubercular activity against Mycobacterium tuberculosis. In kind it is functional.
Turning to `CN1C/C(=C\c2ccc(Br)cc2)C(=O)[C@]2(C1)[C@H](c1ccc(Br)cc1)[C@@H]1CSCN1[C@@]21C(=O)Nc2ccccc21`, the MIC (usually the lowest concentration that inhibits growth of the organism) worked out at 4.7 µM (≈ 3.13 µg/mL). This lies in the single-digit micromolar range.
`CN1C/C(=C\c2ccccc2)C(=O)[C@]2(C1)[C@H](c1ccccc1)[C@@H]1CSCN1[C@@]21C(=O)Nc2ccccc21` yielded a minimal inhibitory concentration (MIC) of 49.2 µM (≈ 25 µg/mL).
Consider `CN1C/C(=C\c2ccc(Br)cc2)C(=O)[C@]2(C1)[C@H](c1ccc(Br)cc1)[C@@H]1CSCN1[C@@]21C(=O)Nc2ccc(Cl)cc21`, for which the MIC is 4.4 µM (≈ 3.08 µg/mL).
Next, `CC(C)c1ccc(/C=C2\CN(C)C[C@@]3(C2=O)[C@H](c2ccc(C(C)C)cc2)[C@@H]2CSCN2[C@@]32C(=O)Nc3ccccc32)cc1`: 10.6 µM (≈ 6.27 µg/mL); `COc1ccccc1/C=C1\CN(C)C[C@@]2(C1=O)[C@H](c1ccccc1OC)[C@@H]1CSCN1[C@@]21C(=O)Nc2ccccc21`: 22 µM (≈ 12.5 µg/mL); `COc1ccc(/C=C2\CN(C)C[C@@]3(C2=O)[C@H](c2ccc(OC)cc2OC)[C@@H]2CSCN2[C@@]32C(=O)Nc3ccccc32)c(OC)c1`: 19.9 µM (≈ 12.5 µg/mL).
Consider `CN1C/C(=C\c2ccc(Cl)cc2Cl)C(=O)[C@]2(C1)[C@H](c1ccc(Cl)cc1Cl)[C@@H]1CSCN1[C@@]21C(=O)Nc2ccc(Cl)cc21`, for which the minimal inhibitory concentration (MIC) is 1.2 µM (≈ 0.816 µg/mL).
Take `Cc1ccc(/C=C2\CN(C)C[C@@]3(C2=O)[C@H](c2ccc(C)cc2)[C@@H]2CSCN2[C@@]32C(=O)Nc3ccc([N+](=O)[O-])cc32)cc1`: the MIC came out at 5.3 µM (≈ 3.08 µg/mL).
In the case of `CN1C/C(=C\c2ccc(Cl)cc2Cl)C(=O)[C@]2(C1)[C@H](c1ccc(Cl)cc1Cl)[C@@H]1CSCN1[C@@]21C(=O)Nc2ccc([N+](=O)[O-])cc21`, the MIC was found to be 0.6 µM (≈ 0.414 µg/mL).
As to `COc1ccc(/C=C2\CN(C)C[C@@]3(C2=O)[C@H](c2ccc(OC)cc2OC)[C@@H]2CSCN2[C@@]32C(=O)Nc3ccc([N+](=O)[O-])cc32)c(OC)c1`, it took 9.4 µM (≈ 6.32 µg/mL) to inhibit growth (MIC).
The same measure for `CN1C/C(=C\c2ccccc2Cl)C(=O)[C@]2(C1)[C@H](c1ccccc1Cl)[C@@H]1CSCN1[C@@]21C(=O)Nc2ccccc21`: 10.9 µM (≈ 6.28 µg/mL); for `CN1C/C(=C\c2ccc(F)cc2)C(=O)[C@]2(C1)[C@H](c1ccc(F)cc1)[C@@H]1CSCN1[C@@]21C(=O)Nc2ccccc21`: 5.7 µM (≈ 3.1 µg/mL).
`Cc1ccccc1/C=C1\CN(C)C[C@@]2(C1=O)[C@H](c1ccccc1C)[C@@H]1CSCN1[C@@]21C(=O)Nc2ccccc21` showed an MIC of 23.3 µM (≈ 12.5 µg/mL). This MIC lies about 4.1-fold higher than the previous one.
`Cc1ccc(/C=C2\CN(C)C[C@@]3(C2=O)[C@H](c2ccc(C)cc2)[C@@H]2CSCN2[C@@]32C(=O)Nc3ccccc32)cc1` registered an MIC of 23.3 µM (≈ 12.5 µg/mL).
With `CN1C/C(=C\c2ccc(Cl)cc2)C(=O)[C@]2(C1)[C@H](c1ccc(Cl)cc1)[C@@H]1CSCN1[C@@]21C(=O)Nc2ccccc21`, the MIC stood at 5.4 µM (≈ 3.11 µg/mL).
`CN1C/C(=C\c2ccccc2)C(=O)[C@]2(C1)[C@H](c1ccccc1)[C@@H]1CSCN1[C@@]21C(=O)Nc2ccc(Cl)cc21` came in with an MIC of 23.1 µM (≈ 12.5 µg/mL).
Compound `COc1ccc(/C=C2\CN(C)C[C@@]3(C2=O)[C@H](c2ccc(OC)cc2OC)[C@@H]2CSCN2[C@@]32C(=O)Nc3ccc(Cl)cc32)c(OC)c1` showed an MIC of 18.9 µM (≈ 12.5 µg/mL).
Turning to `CN1C/C(=C\c2ccccc2-c2cccs2)C(=O)[C@]2(C1)[C@H](c1ccccc1-c1cccs1)[C@@H]1CSCN1[C@@]21C(=O)Nc2ccc(Cl)cc21`, the MIC was found to be 11.4 µM (≈ 8.05 µg/mL). Compared with the last compound, the MIC is about 1.7-fold lower.
The same measure for `CN1C/C(=C\c2ccccc2)C(=O)[C@]2(C1)[C@H](c1ccccc1)[C@@H]1CSCN1[C@@]21C(=O)Nc2ccc([N+](=O)[O-])cc21`: 5.6 µM (≈ 3.09 µg/mL); for `CN1C/C(=C\c2ccc(Cl)cc2)C(=O)[C@]2(C1)[C@H](c1ccc(Cl)cc1)[C@@H]1CSCN1[C@@]21C(=O)Nc2ccc([N+](=O)[O-])cc21`: 1.3 µM (≈ 0.808 µg/mL); for `COc1ccc(/C=C2\CN(C)C[C@@]3(C2=O)[C@H](c2ccc(OC)cc2)[C@@H]2CSCN2[C@@]32C(=O)Nc3ccc([N+](=O)[O-])cc32)cc1`: 10.3 µM (≈ 6.31 µg/mL).
`CN1C/C(=C\c2ccc(F)cc2)C(=O)[C@]2(C1)[C@H](c1ccc(F)cc1)[C@@H]1CSCN1[C@@]21C(=O)Nc2ccc([N+](=O)[O-])cc21` registered an MIC of 1.4 µM (≈ 0.824 µg/mL).
In turn, `CN1C/C(=C\c2ccc(Br)cc2)C(=O)[C@]2(C1)[C@H](c1ccc(Br)cc1)[C@@H]1CSCN1[C@@]21C(=O)Nc2ccc([N+](=O)[O-])cc21` returned an MIC of 1.1 µM (≈ 0.781 µg/mL).
`CN1C/C(=C\c2ccc(Cl)cc2Cl)C(=O)[C@]2(C1)[C@H](c1ccc(Cl)cc1Cl)[C@@H]1CSCN1[C@@]21C(=O)Nc2ccccc21` yielded an MIC of 4.7 µM (≈ 3.03 µg/mL).
In turn, `CN1C/C(=C\c2ccccc2-c2cccs2)C(=O)[C@]2(C1)[C@H](c1ccccc1-c1cccs1)[C@@H]1CSCN1[C@@]21C(=O)Nc2ccccc21` showed an MIC of 12.1 µM (≈ 8.13 µg/mL).
The same measure for `CN1C/C(=C\c2ccccc2Cl)C(=O)[C@]2(C1)[C@H](c1ccccc1Cl)[C@@H]1CSCN1[C@@]21C(=O)Nc2ccc([N+](=O)[O-])cc21`: 2.6 µM (≈ 1.62 µg/mL); for `Cc1ccccc1/C=C1\CN(C)C[C@@]2(C1=O)[C@H](c1ccccc1C)[C@@H]1CSCN1[C@@]21C(=O)Nc2ccc([N+](=O)[O-])cc21`: 5.3 µM (≈ 3.08 µg/mL).
In turn, `COc1ccccc1/C=C1\CN(C)C[C@@]2(C1=O)[C@H](c1ccccc1OC)[C@@H]1CSCN1[C@@]21C(=O)Nc2ccc([N+](=O)[O-])cc21` gave an MIC of 5.1 µM (≈ 3.12 µg/mL).
`CN1C/C(=C\c2ccccc2-c2cccs2)C(=O)[C@]2(C1)[C@H](c1ccccc1-c1cccs1)[C@@H]1CSCN1[C@@]21C(=O)Nc2ccc([N+](=O)[O-])cc21` displayed an MIC of 5.5 µM (≈ 3.94 µg/mL).
Take `COc1ccc(/C=C2\CN(C)C[C@@]3(C2=O)[C@H](c2ccc(OC)cc2)[C@@H]2CSCN2[C@@]32C(=O)Nc3ccccc32)cc1`: inhibition of growth (MIC) required 22 µM (≈ 12.5 µg/mL).
In the case of `CN1C/C(=C\c2ccc(Cl)cc2)C(=O)[C@]2(C1)[C@H](c1ccc(Cl)cc1)[C@@H]1CSCN1[C@@]21C(=O)Nc2ccc(Cl)cc21`, the MIC is 5.1 µM (≈ 3.12 µg/mL).
Next, `Cc1ccc(/C=C2\CN(C)C[C@@]3(C2=O)[C@H](c2ccc(C)cc2)[C@@H]2CSCN2[C@@]32C(=O)Nc3ccc(Cl)cc32)cc1`: 11 µM (≈ 6.27 µg/mL); `COc1ccc(/C=C2\CN(C)C[C@@]3(C2=O)[C@H](c2ccc(OC)cc2)[C@@H]2CSCN2[C@@]32C(=O)Nc3ccc(Cl)cc32)cc1`: 20.8 µM (≈ 12.5 µg/mL); `CN1C/C(=C\c2ccc(F)cc2)C(=O)[C@]2(C1)[C@H](c1ccc(F)cc1)[C@@H]1CSCN1[C@@]21C(=O)Nc2ccc(Cl)cc21`: 2.8 µM (≈ 1.62 µg/mL).
Next, `CC(C)c1ccc(/C=C2\CN(C)C[C@@]3(C2=O)[C@H](c2ccc(C(C)C)cc2)[C@@H]2CSCN2[C@@]32C(=O)Nc3ccc(Cl)cc32)cc1`: 10.1 µM (≈ 6.33 µg/mL).
Compound `CN1C/C(=C\c2ccccc2Cl)C(=O)[C@]2(C1)[C@H](c1ccccc1Cl)[C@@H]1CSCN1[C@@]21C(=O)Nc2ccc(Cl)cc21` displayed an MIC of 5.1 µM (≈ 3.12 µg/mL).
The same measure for `Cc1ccccc1/C=C1\CN(C)C[C@@]2(C1=O)[C@H](c1ccccc1C)[C@@H]1CSCN1[C@@]21C(=O)Nc2ccc(Cl)cc21`: 11 µM (≈ 6.27 µg/mL).
The same measure for `COc1ccccc1/C=C1\CN(C)C[C@@]2(C1=O)[C@H](c1ccccc1OC)[C@@H]1CSCN1[C@@]21C(=O)Nc2ccc(Cl)cc21`: 20.8 µM (≈ 12.5 µg/mL); for `CC[C@@H](CO)NCCN[C@@H](CC)CO` [ETHAMBUTOL]: 7.6 µM (≈ 1.55 µg/mL).
Regarding `NNC(=O)c1ccncc1` [ISONIAZID], it took 0.4 µM (≈ 0.0549 µg/mL) to inhibit growth (MIC).
In the case of `NC(=O)c1cnccn1` [PYRAZINAMIDE], the minimal inhibitory concentration (MIC) turned out to be 50.8 µM (≈ 6.25 µg/mL).
The compound `CO[C@H]1/C=C/O[C@@]2(C)Oc3c(C)c(O)c4c(O)c(c(/C=N/N5CCN(C)CC5)c(O)c4c3C2=O)NC(=O)/C(C)=C\C=C\[C@H](C)[C@H](O)[C@@H](C)[C@@H](O)[C@@H](C)[C@H](OC(C)=O)[C@@H]1C` [RIFAMPIN] displayed a minimal inhibitory concentration (MIC) of 0.1 µM (≈ 0.0823 µg/mL).

Source of the values: ChEMBL document CHEMBL1153107, “A highly atom economic, chemo-, regio- and stereoselective synthesis and evaluation of spiro-pyrrolothiazoles as antitubercular agents” (2010).
